Measurements reported in patent US20240182521A1, “CELL-PENETRATING PEPTIDE VARIANT AND USE THEREOF” (REGEN INNOPHARM INC., priority 2021, published 2024).

Legend:
wild type (WT) mice = assay: Skin punch wound healing in wild type mice; assay type: in vivo, mouse; settings: 2 mg/ml, 20 μl daily for 14 days
Description: (§1) The skins of wild type (WT) mice and diabetes model mice (db/db) (n=14 each) were punched with an 8 mm diameter puncher and treated with LPX101 (2 mg/ml, 20 μl) or PBS daily for 14 days and subjected to wound dressing. The wound healing effect was confirmed by analyzing an initial wound area and a re-epithelialization area using ImageJ (mean SEM n=3, *; p<0.05). In addition, the wound healing effect in wounds treated with LPX101 was histologically evaluated. Specifically, diabetic mice (db/db) were stained with H/E or trichrome at 7 and 14 days after wound induction and then confirmed under a microscope, and re-epithelialization and granulation tissue were quantified using ImageJ (n=3, ***; p<0.001). In addition, the wounds of db/db mice were treated with LPX101, and the tissue epidermis after 14 days was histologically analyzed.

NIH3T3 cells [1] = assay: Glycolysis, extracellular acidification rate (ECAR), Seahorse XF analyzer; assay type: cell-based, mouse
Description: NIH3T3 cells were incubated in a glucose-free medium for 1 day and then sequentially treated with glucose, oligomycin, and 2-DG, and an extracellular acidification rate (ECAR) was measured as a measure of lactate production using a Seahorse extracellular flux (XF) analyzer and quantification and profile of ECAR were confirmed in cells treated with LPX peptide (Mean SEM n=3, *; p<0.05).

[2] = test system: Human umbilical vein endothelial cells (Huvec); assay: Blood vessel formation on cytokine-free Matrigel; assay type: cell-based; settings: Huvec treated for one day
Description: Human umbilical vein endothelial cells (Huvec) were dispensed on a cytokine-free Matrigel and treated with LPX101 for one day (n=3, 1 expt). […], the blood vessel formation was confirmed under a microscope, and blood vessel formation parameters including the number of nodules, the number of intravascular junctions, and the number of master segments were quantified.

[3] = test system: diabetes model mice (db/db); assay: Diabetic wound healing in diabetes model mice (db/db); assay type: in vivo, mouse
Description: as §1
(§2) The wound healing effects of LPX101, LPX102, and LPX103 were confirmed in an STZ-induced diabetic mouse model. […] Thereafter, according to a schedule shown in FIG. 12A, PBS (negative control), EGF (positive control) 50 μg/ml, LPX101 2 mg/ml (20 μl), LPX102 and LPX103 (2 mg/ml (20 μl)) were treated, respectively, and then the effect of wound healing in a diabetes-induced mouse model was confirmed through imaging, re-epithelialization, and diabetes phenotypes (hyperglycemia and impaired glucose tolerance test (IPGTT)) (n=10 for each group, *; p<0.05). Additionally, to compare the regenerative activity of LPX peptides in a diabetic mouse model, wound healing kinetics measured by a % non-epithelialized area to an initial wound area (n=8 for each group), and quantification of re-epithelialization analyzed as % of a re-epithelialized area to the initial wound area were confirmed.

[4] = test system: diabetic human epidermal keratinocyte (DHEK); assay: Cell migration across a scratched boundary; assay type: cell-based
Description: (§3) An effect of LPX101 peptide on cell growth was confirmed in a NIH3T3 cell line, and the effects of LPX101, LPX102, and LPX103 peptides on cell migration were confirmed in diabetic human epidermal keratinocyte (DHEK) as a diabetic cell line. Specifically, mMSC or NIH3T3 cells were treated with the LPX101 peptide, incubated for 1 hour, and then washed. A % increase in cell growth by LPX treatment was confirmed by measuring the number of cells after 3 days of treatment and calculating a relative proliferation rate as % compared to a control group (n=3). Additionally, in order to confirm the cell migration effect, DHEK cells were treated with LPX101, LPX102, and LPX103 peptides, incubated for 1 hour, and then washed. Thereafter, the migration of cells across a scratched boundary was measured 72 hours after treatment. The number of cells that migrated across a scratch line was measured by image analysis using ImageJ.

NIH3T3 cells [5] = assay: Cell migration effects, Table 1; assay type: cell-based, mouse; settings: vehicle = 1
Description: Various variants of the LPX peptides were prepared as illustrated in FIG. 18. Specifically, various constructs (26 constructs including 101) were prepared by adding various mutations (substitution of a CPP region, amino acid mutation of an RNA binding portion and a zinc finger structure, and addition of his-tag) to the structure of LPX101 in FIG. 19 (FIG. 20).

diabetic mice (db/db) = assay: Histological evaluation of wound re-epithelialization (H/E, day 10); assay type: in vivo, mouse; settings: day 10 after initial injury
Description: In order to histologically evaluate wound re-epithelialization in diabetic mice by LPX peptides 101, 102 and 103, wound tissues from diabetic mice (db/db) treated by each LPX were H/E stained on day 10 after initial injury and confirmed under a microscope (50X and 100x).

[6] = test system: diabetic mouse model (db/db); assay: Diabetic wound healing by combined treatment with EGF; assay type: in vivo; settings: db/db mice, 8 mm punch wound
Description: The diabetic wound healing effect by combined treatment with LPX peptide and EGF was confirmed.

[7] = test system: NIH3T3 cell line and mouse mesenchymal stem cells (mMSCs); assay: Cell penetrating effect (FACS, confocal microscopy) of FITC-attached peptides; assay type: cell-based
Description: A cell penetrating effect was confirmed in penetrating peptides LPX101 (SEQ ID NO: 11), LPX102 (SEQ ID NO: 12), and LPX103 (SEQ ID NO: 13) having three structures including a signal peptide, an RNA binding affinity residue, and an RNA binding residue (FIG. 1), and two zinc finger motifs. Specifically, in order to measure cell penetrating efficiency, respective peptides that may have been attached to the cell membrane surface were removed by applying a Heparin & Trypsin washing method used in a Keplan group [Kaplan I M, Wadia J S, Dowdy S F (2005) Cationic TAT peptide transduction domain enters cells by macropinocytosis. J Controlled release 102: 247-253] to a NIH3T3 cell line and mouse mesenchymal stem cells (mMSCs). […] Then, the cells were washed three times with PBS and detached with trypsin, and then FACS analysis was performed. In addition, whether each peptide actually existed in the nucleus or cytoplasm of the cell was confirmed by confocal microscopy after 18 hours of peptide treatment, and membrane binding was labeled with PKH.

NIH3T3 cell line = assay: Cell growth (relative proliferation rate vs control, 3 days); assay type: cell-based, mouse; settings: concentrations of 2 μM and 5 μM; 3 days after treatment
Description: as §3

fibroblast 3T3 cells = assay: Cell migration across a scratched boundary, LPX105 variants; assay type: cell-based; settings: 72 hours after treatment, control group PBS
Description: Using the method described in Example 1-2 above, the cell migration promotion of LPX105, LPH105, and LPHS105 was confirmed. Specifically, in order to confirm the cell migration effect, fibroblast 3T3 cells were treated with LPX105, LPH105, and LPHS105 peptides, incubated for 1 hour, and then washed. Thereafter, the migration of cells across a scratched boundary was measured 72 hours after treatment. The number of cells that migrated across a scratch line was measured by image analysis using ImageJ.

[8] = test system: diabetes model mice (db/db); assay: Diabetic wound healing of LPX105 variants in db/db mice; assay type: in vivo, mouse; settings: 3 μg daily for 10 days, control group PBS
Description: By using the method described in Example 2-4 above, the diabetic wound healing effect of LPX105, LPH105, and LPHS105 was evaluated. Specifically, the skins of diabetes model mice (db/db) (n=14 each) were punched with an 8 mm diameter puncher and treated with LPX105, LPH105 and LPHS105 (3 μg) or PBS daily for 10 days and subjected to wound dressing. The wound healing effect was confirmed by analyzing an initial wound area and a re-epithelialization area using ImageJ (mean SEM n=3, *; p<0.05).

[9] = test system: STZ-induced diabetic mouse model; assay: Wound healing in STZ-induced diabetic mouse model; assay type: in vivo; settings: 2 mg/ml (20 μl)
Description: as §2

Substance	glucose metabolism (glycolysis), ECAR (NIH3T3 cells [1])	Effects on cell migration (3 expts) (NIH3T3 cells [5]; 1 uM)	Effects on cell migration (3 expts) (NIH3T3 cells [5]; 5 uM)	re-epithelialization of diabetic wounds (histology) (diabetic mice (db/db))	diabetic wound healing effect in combination with EGF [6]	cell migration (fibroblast 3T3 cells)	diabetic wound healing [8]	other results
LPX101: cell-penetrating peptide consisting of amino acid sequence SEQ ID NO: 11 (RRPKGKSMQKRRSKGDRCYNCGGLDHHAKECKLPPQPKKCHFCQSISHMVASCPLKAQQK; LPX101)	promoted glucose metabolism (glycolysis)	1.4	1.3	significantly improved re-epithelialization	improved when treated in combination with EGF	–	–	wound healing (wild type (WT) mice): accelerated wound healing; blood vessel formation (capillary vascular rings) [2]: form more mature capillary vascular rings; healing of diabetic wounds ([3]; db/db mice, 2 mg/ml, 20 μl daily for 14 days): significantly accelerated the healing of diabetic wounds; granulation tissue, day 7 ([3]; db/db mice, day 7 (middle of the healing process)): early formation of granulation tissue; remodeling of the regenerated wound epithelium ([3]; db/db mice, day 14): accelerated; granulation tissue, day 14 ([3]; db/db mice, day 14 (end of the healing process)): early shrinkage (remodeling) of granulation tissue; hyperkeratosis, parakeratosis and acanthosis of the epidermis ([3]; db/db mice, histological analysis on day 14): reduced early; migration of DHEK cells ([4]; 72 hours after treatment): promoted the migration of DHEK cells; cell permeability ([7]; concentrations of 2 μM and 5 μM): high cell permeability; intracellular localization ([7]; confocal microscopy after 18 hours of peptide treatment): most of LPX101 was present in the cytoplasm; cell growth (NIH3T3 cell line): promoted cell growth
LPHS105: LPX105 variant of SEQ ID NO: 40, zinc finger region mutations and Histidine tag insertion (HHHHHHRRPKGKSMQKRRSKGDRCYNCGELDHHAKECKL; LPHS105)	–	–	–	–	–	increased cell migration more than LPX105	accelerated the diabetic wound healing more significantly than LPX105	–
LPH105: LPX105 variant of SEQ ID NO: 39, Histidine tag insertion (HHHHHHRRPKGKSMQKRRSKGDRCYNCGGLDHHAKECKL; LPH105)	–	–	–	–	–	increased cell migration more than LPX105	accelerated the diabetic wound healing more significantly than LPX105	–
LPX105: cell-penetrating peptide of SEQ ID NO: 37 (RRPKGKSMQKRRSKGDRCYNCGGLDHHAKECKL; LPX105)	–	–	–	–	–	significantly promoted cell migration	accelerated the diabetic wound healing	–
LPX104: cell-penetrating peptide of SEQ ID NO: 14, containing SEQ ID NO: 7 with an RNA binding site in zinc finger 2 region (ERRPKGKSMQKRRSKGDRCYNCGGLDHHAKECKLPPQPKKCH; LPX104)	–	1.3	1.3	–	–	–	–	–
LPX102: cell-penetrating peptide consisting of amino acid sequence SEQ ID NO: 12 (GSERRPKGKSMQKRRSKGDRCYNCGGLDHHAKECKLPPQPKKCHFCQSISHMVASCPL; LPX102)	promoted glucose metabolism (glycolysis)	1.2	1.2	significantly improved re-epithelialization	improved when treated in combination with EGF	–	–	diabetic wound healing effect (wound healing kinetics and re-epithelialization) compared to LPX101 ([3]; db/db mouse model): better diabetic wound healing effect than LPX101; cell migration compared to LPX101 ([4]; DHEK cells, at lower concentrations than LPX101): promoted cell migration to a similar extent to LPX101; wound healing effect compared to LPX101 [9]: better effects than LPX101; cell permeability compared to LPX101 ([7]; compared to LPX101 (2 μM)): high cell permeability similar to LPX101
